Structures can show the parent of a compound that is named as a salt. Where two headings read alike, the source gives them in different places.
Biological target: T1, human V1a receptor (Homo sapiens, UniProt P37288)
T1 construct: expressed in transfected cells; host or cells: HEK293 cells, transiently transfected; membranes prepared
Assay: human V1a receptor binding (3H-Vasopressin SPA, HEK293 membranes)
Procedure: The human V1a receptor was cloned by RT-PCR from total human liver RNA. The coding sequence was subcloned in an expression vector after sequencing to confirm the identity of the amplified sequence. […] Cell membranes were prepared from HEK293 cells transiently transfected with the expression vector and grown in 20 liter fermenters with the following protocol.
50 g of cells are resuspended in 30 ml freshly prepared ice cold Lysis buffer (50 mM HEPES, 1 mM EDTA, 10 mM magnesium dichloride adjusted to pH=7.4+complete cocktail of protease inhibitor (Roche Diagnostics)). Homogenized with Polytron for 1 min and sonicated on ice for 2×2 minutes at 80% intensity (Vibracell sonicator). The preparation is centrifuged 20 min at 500 g at 4° C., the pellet is discarded and the supernatant centrifuged 1 hour at 43,000 g at 4° C. (19,000 rpm). The pellet is resuspended in 12.5 ml Lysis buffer+12.5 ml sucrose 20% and homogenized using a Polytron for 1-2 min. The protein concentration is determined by the Bradford method and aliquots are stored at −80° C. until use. For binding studies 60 mg Yttrium silicate SPA beads (Amersham®) are mixed with an aliquot of membrane in binding buffer (50 mM Tris, 120 mM sodium chloride, 5 mM potassium chloride, 2 mM calcium dichloride, 10 mM magnesium dichloride) for 15 minutes with mixing. 50 μl of bead/membrane mixture is then added to each well of a 96 well plate, followed by 50 μl of 4 nM 3H-Vasopressin (American Radiolabeled Chemicals). For total binding measurement 100 μl of binding buffer are added to the respective wells, for non-specific binding 100 μl of 8.4 mM cold vasopressin and for compound testing 100 μl of a serial dilution of each compound in 2% dimethyl sulfoxide. The plate is incubated 1 h at room temperature, centrifuged 1 min at 1000 g and counted on a Packard Top-Count. Non-specific binding counts are subtracted from each well and data is normalized to the maximum specific binding set at 100%. To calculate an IC50 the curve is fitted using a non-linear regression model (XLfit) and the Ki is calculated using the Cheng-Prussoff equation.

[1] = 3H-Vasopressin displacement, membranes of HEK293 cells transiently transfected with human V1a, Ki from IC50 by Cheng-Prussoff, read-out: pKi (hV1a) (converted)

T1 sequence (P37288 whole entry): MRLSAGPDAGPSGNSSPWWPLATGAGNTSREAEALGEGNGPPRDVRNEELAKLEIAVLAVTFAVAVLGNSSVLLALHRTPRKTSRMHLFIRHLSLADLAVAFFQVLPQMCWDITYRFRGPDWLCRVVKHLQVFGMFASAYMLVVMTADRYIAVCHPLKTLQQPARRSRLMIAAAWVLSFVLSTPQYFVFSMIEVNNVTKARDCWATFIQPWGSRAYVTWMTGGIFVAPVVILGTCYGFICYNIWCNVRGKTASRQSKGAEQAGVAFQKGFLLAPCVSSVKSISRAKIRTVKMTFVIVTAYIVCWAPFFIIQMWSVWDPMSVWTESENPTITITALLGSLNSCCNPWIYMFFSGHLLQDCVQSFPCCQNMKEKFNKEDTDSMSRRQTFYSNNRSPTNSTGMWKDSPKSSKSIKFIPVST

| Compound | Ki [1] [nM] | Ki [nM] |
| --- | --- | --- |
| CC(C)(C)OC(=O)N1Cc2cc(Cl)ccc2-n2c(nnc2[C@H]2CC[C@H](c3ccccc3)CC2)C1 [Example 1, trans-8-Chloro-1-(4-phenyl-cyclohexyl)-4H,6H-2,3,5,10b-tetraaza-benzo[e]azulene-5-carboxylic acid tert-butyl ester] | 6.46 | – |
| Clc1ccc2c(c1)CNCc1nnc([C@H]3CC[C@H](c4ccccc4)CC3)n1-2 [Example 2, trans-8-Chloro-1-(4-phenyl-cyclohexyl)-5,6-dihydro-4H-2,3,5,10b-tetraaza-benzo[e]azulene hydrochloride] | 2.09 | – |
| CN1Cc2cc(Cl)ccc2-n2c(nnc2[C@H]2CC[C@H](c3ccccc3)CC2)C1 [Example 3, trans-8-Chloro-5-methyl-1-(4-phenyl-cyclohexyl)-5,6-dihydro-4H-2,3,5,10b-tetraaza-benzo[e]azulene] | – | 0.794 |
| Cc1ccccc1[C@H]1CC[C@@H](c2nnc3n2-c2ccc(Cl)cc2CN(C)C3)CC1 [Example 4, cis-8-Chloro-5-methyl-1-(4-o-tolyl-cyclohexyl)-5,6-dihydro-4H-2,3,5,10b-tetraaza-benzo[e]azulene] | 16.2 | – |
| Cc1ccccc1[C@H]1CC[C@H](c2nnc3n2-c2ccc(Cl)cc2CN(C)C3)CC1 [Example 5, trans-8-Chloro-5-methyl-1-(4-o-tolyl-cyclohexyl)-5,6-dihydro-4H-2,3,5,10b-tetraaza-benzo[e]azulene] | 4.27 | – |
| Cc1ccccc1[C@H]1CC[C@@H](c2nnc3n2-c2ccccc2CN(C)C3)CC1 [Example 6, cis-5-Methyl-1-(4-o-tolyl-cyclohexyl)-5,6-dihydro-4H-2,3,5,10b-tetraaza-benzo[e]azulene] | 339 | – |
| CC(C)(C)OC(=O)N1Cc2cc(Cl)ccc2-n2c(nnc2[C@H]2CC[C@@H](c3ccc(F)cc3)CC2)C1 [Example 7] | 52.5 | – |
| Fc1ccc([C@H]2CC[C@@H](c3nnc4n3-c3ccc(Cl)cc3CNC4)CC2)cc1 [Example 8, cis-8-Chloro-1-[4-(4-fluoro-phenyl)-cyclohexyl]-5,6-dihydro-4H-2,3,5,10b-tetraaza-benzo[e]azulene hydrochloride] | 302 | – |
| CN1Cc2cc(Cl)ccc2-n2c(nnc2[C@H]2CC[C@@H](c3ccc(F)cc3)CC2)C1 [Example 9, cis-8-Chloro-1-[4-(4-fluoro-phenyl)-cyclohexyl]-5-methyl-5,6-dihydro-4H-2,3,5,10b-tetraaza-benzo[e]azulene] | 30.2 | – |
| CC(C)(C)OC(=O)N1Cc2cc(Cl)ccc2-n2c(nnc2[C@H]2CC[C@H](c3ccc(F)cc3)CC2)C1 [Example 10] | 4.68 | – |
| Fc1ccc([C@H]2CC[C@H](c3nnc4n3-c3ccc(Cl)cc3CNC4)CC2)cc1 [Example 11, trans-8-Chloro-1-[4-(4-fluoro-phenyl)-cyclohexyl]-5,6-dihydro-4H-2,3,5,10b-tetraaza-benzo[e]azulene hydrochloride] | 6.31 | – |
| CN1Cc2cc(Cl)ccc2-n2c(nnc2[C@H]2CC[C@H](c3ccc(F)cc3)CC2)C1 [Example 12, trans-8-Chloro-1-[4-(4-fluoro-phenyl)-cyclohexyl]-5-methyl-5,6-dihydro-4H-2,3,5,10b-tetraaza-benzo[e]azulene] | 2.19 | – |
| CC(C)(C)OC(=O)N1Cc2cc(Cl)ccc2-n2c(nnc2[C@H]2CC[C@H](c3cccc(OC(F)(F)F)c3)CC2)C1 [Example 13, trans-8-Chloro-1-[4-(3-trifluoromethoxy-phenyl)-cyclohexyl]-4H,6H-2,3,5,10b-tetraaza-benzo[e]azulene-5-carboxylic acid tert-butyl ester] | 18.2 | – |
| FC(F)(F)Oc1cccc([C@H]2CC[C@H](c3nnc4n3-c3ccc(Cl)cc3CNC4)CC2)c1 [Example 14, trans-8-Chloro-1-[4-(3-trifluoromethoxy-phenyl)-cyclohexyl]-5,6-dihydro-4H-2,3,5,10b-tetraaza-benzo[e]azulene hydrochloride] | 57.5 | – |
| CN1Cc2cc(Cl)ccc2-n2c(nnc2[C@H]2CC[C@H](c3cccc(OC(F)(F)F)c3)CC2)C1 [Example 15, trans-8-Chloro-5-methyl-1-[4-(3-trifluoromethoxy-phenyl)-cyclohexyl]-5,6-dihydro-4H-2,3,5,10b-tetraaza-benzo[e]azulene] | 10.2 | – |
| CC(C)(C)OC(=O)N1Cc2cc(Cl)ccc2-n2c(nnc2[C@H]2CC[C@H](c3cccc(F)c3Cl)CC2)C1 [Example 16, trans-8-Chloro-1-[4-(2-chloro-3-fluoro-phenyl)-cyclohexyl]-4H,6H-2,3,5,10b-tetraaza-benzo[e]azulene-5-carboxylic acid tert-butyl ester] | 4.17 | – |
| Fc1cccc([C@H]2CC[C@H](c3nnc4n3-c3ccc(Cl)cc3CNC4)CC2)c1Cl [Example 17, trans-8-Chloro-1-[4-(2-chloro-3-fluoro-phenyl)-cyclohexyl]-5,6-dihydro-4H-2,3,5,10b-tetraaza-benzo[e]azulene hydrochloride] | 15.1 | – |
| CN1Cc2cc(Cl)ccc2-n2c(nnc2[C@H]2CC[C@H](c3cccc(F)c3Cl)CC2)C1 [Example 18, trans-8-Chloro-1-[4-(2-chloro-3-fluoro-phenyl)-cyclohexyl]-5-methyl-5,6-dihydro-4H-2,3,5,10b-tetraaza-benzo[e]azulene] | 3.09 | – |
| CC(C)(C)OC(=O)N1Cc2cc(Cl)ccc2-n2c(nnc2[C@H]2CC[C@H](c3cccc4ccccc43)CC2)C1 [Example 19, trans-8-Chloro-1-(4-naphthalen-1-yl-cyclohexyl)-4H,6H-2,3,5,10b-tetraaza-benzo[e]azulene-5-carboxylic acid tert-butyl ester] | – | 6.03 |
| Clc1ccc2c(c1)CNCc1nnc([C@H]3CC[C@H](c4cccc5ccccc54)CC3)n1-2 [Example 20, trans-8-Chloro-1-(4-naphthalen-1-yl-cyclohexyl)-5,6-dihydro-4H-2,3,5,10b-tetraaza-benzo[e]azulene hydrochloride] | 20.4 | – |
| CN1Cc2cc(Cl)ccc2-n2c(nnc2[C@H]2CC[C@H](c3cccc4ccccc43)CC2)C1 [Example 21, trans-8-Chloro-5-methyl-1-(4-naphthalen-1-yl-cyclohexyl)-5,6-dihydro-4H-2,3,5,10b-tetraaza-benzo[e]azulene] | 7.59 | – |
| COc1ccc(F)cc1[C@H]1CC[C@H](c2nnc3n2-c2ccc(Cl)cc2CN(C(=O)OC(C)(C)C)C3)CC1 [Example 22, trans-8-Chloro-1-[4-(5-fluoro-2-methoxy-phenyl)-cyclohexyl]-4H,6H-2,3,5,10b-tetraaza-benzo[e]azulene-5-carboxylic acid tert-butyl ester] | 11.2 | – |
| COc1ccc(F)cc1[C@H]1CC[C@H](c2nnc3n2-c2ccc(Cl)cc2CNC3)CC1 [Example 23, trans-8-Chloro-1-[4-(5-fluoro-2-methoxy-phenyl)-cyclohexyl]-5,6-dihydro-4H-2,3,5,10b-tetraaza-benzo[e]azulene hydrochloride] | 42.7 | – |
| COc1ccc(F)cc1[C@H]1CC[C@H](c2nnc3n2-c2ccc(Cl)cc2CN(C)C3)CC1 [Example 24, trans-8-Chloro-1-[4-(5-fluoro-2-methoxy-phenyl)-cyclohexyl]-5-methyl-5,6-dihydro-4H-2,3,5,10b-tetraaza-benzo[e]azulene] | 5.75 | – |
| CC(C)(C)OC(=O)N1Cc2cc(Cl)ccc2-n2c(nnc2[C@H]2CC[C@H](c3cccc(C#N)c3)CC2)C1 [Example 25, trans-8-Chloro-1-[4-(3-cyano-phenyl)-cyclohexyl]-4H,6H-2,3,5,10b-tetraaza-benzo[e]azulene-5-carboxylic acid tert-butyl ester] | – | 7.08 |
| N#Cc1cccc([C@H]2CC[C@H](c3nnc4n3-c3ccc(Cl)cc3CNC4)CC2)c1 [Example 26, trans-3-[4-(8-Chloro-5,6-dihydro-4H-2,3,5,10b-tetraaza-benzo[e]azulen-1-yl)-cyclohexyl]-benzonitrile hydrochloride] | 32.4 | – |
| CN1Cc2cc(Cl)ccc2-n2c(nnc2[C@H]2CC[C@H](c3cccc(C#N)c3)CC2)C1 [Example 27, trans-3-[4-(8-Chloro-5-methyl-5,6-dihydro-4H-2,3,5,10b-tetraaza-benzo[e]azulen-1-yl)-cyclohexyl]-benzonitrile] | 2.69 | – |
| CC(=O)N1Cc2cc(Cl)ccc2-n2c(nnc2[C@H]2CC[C@H](c3ccccc3)CC2)C1 [Example 28, trans-1-[8-Chloro-1-(4-phenyl-cyclohexyl)-4H,6H-2,3,5,10b-tetraaza-benzo[e]azulen-5-yl]-ethanone] | 1.29 | – |
| CS(=O)(=O)N1Cc2cc(Cl)ccc2-n2c(nnc2[C@H]2CC[C@H](c3ccccc3)CC2)C1 [Example 29, trans-8-Chloro-5-methanesulfonyl-1-(4-phenyl-cyclohexyl)-5,6-dihydro-4H-2,3,5,10b-tetraaza-benzo[e]azulene] | 1.82 | – |

Reference: US8420633B2 (Hoffmann-La Roche Inc., priority 2010, dated 2013)
